Data from ChEMBL document CHEMBL2146462, “Tyrosinase inhibitory activity of a 6-isoprenoid-substituted flavanone isolated from Dalea elegans” (Bioorg Med Chem, 2011).
Activity calls are given as the source filed them. No cut-off for these calls is given here.

Legend:
Tyrosinase [1] = molecular target: T1, Tyrosinase (Agaricus bisporus, UniProt O42713)
T1 sequence (O42713 whole entry): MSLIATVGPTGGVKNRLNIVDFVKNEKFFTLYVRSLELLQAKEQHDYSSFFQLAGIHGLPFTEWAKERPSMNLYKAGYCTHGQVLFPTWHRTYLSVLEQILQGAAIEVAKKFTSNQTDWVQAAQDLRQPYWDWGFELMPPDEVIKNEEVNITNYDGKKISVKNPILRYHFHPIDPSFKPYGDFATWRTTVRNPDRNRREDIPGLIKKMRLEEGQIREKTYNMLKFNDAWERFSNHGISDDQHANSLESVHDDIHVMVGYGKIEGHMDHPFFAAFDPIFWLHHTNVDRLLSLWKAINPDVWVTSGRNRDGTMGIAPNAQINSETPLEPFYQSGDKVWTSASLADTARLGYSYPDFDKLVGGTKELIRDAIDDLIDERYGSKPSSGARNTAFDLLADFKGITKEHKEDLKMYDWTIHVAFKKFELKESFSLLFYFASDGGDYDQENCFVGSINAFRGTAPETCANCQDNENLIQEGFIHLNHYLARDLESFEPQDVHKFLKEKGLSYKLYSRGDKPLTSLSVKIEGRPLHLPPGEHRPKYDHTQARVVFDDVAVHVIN
Description: Inhibition of mushroom tyrosinase using as L-DOPA substrate after 2 mins by spectrophotometric analysis

Tyrosinase [2] = molecular target: T1, Tyrosinase; remark: listed apart in the source
[3] = molecular target: T2, Tyrosinase (Agaricus bisporus) (UniProt O42713); experiment: Inhibition of mushroom tyrosinase assessed as reduction in reaction rate of L-tyrosine oxidation by spectrophotometric analysis
T2 sequence (whole entry): T1 sequence (O42713 whole entry)

[4] = molecular target: T2, Tyrosinase (Agaricus bisporus); experiment: Competitive inhibition of mushroom tyrosinase using L-tyrosine substrate by Lineweaver-Burk double reciprocal plot analysis
[5] = molecular target: T2, Tyrosinase (Agaricus bisporus); experiment: Noncompetitive inhibition of mushroom tyrosinase using […] substrate by Lineweaver-Burk double reciprocal plot analysis
[6] = molecular target: T2, Tyrosinase (Agaricus bisporus); experiment: Inhibition of mushroom tyrosinase assessed as lag time for L-tyrosine oxidation at 5.51 uM by spectrophotometric analysis
[7] = molecular target: T2, Tyrosinase (Agaricus bisporus); experiment: Potency index, ratio Ki for kojic acid to compound against mushroom tyrosinase diphenolase activity
[8] = molecular target: T2, Tyrosinase (Agaricus bisporus); experiment: […] mixed-I type inhibition of mushroom tyrosinase using L-tyrosine substrate by Lineweaver-Burk double reciprocal plot analysis
Tyrosinase [9] = molecular target: T1, Tyrosinase; experiment: Inhibition of mushroom tyrosinase assessed as inhibition constant for compound-free enzyme using as […] substrate by spectrophotometric analysis
[10] = molecular target: T2, Tyrosinase (Agaricus bisporus); experiment: Potency index, ratio IC50 for arbutin to compound against mushroom tyrosinase assessed as inhibition constant for compound-free enzyme using as L-tyrosine substrate by spectrophotometric analysis
[11] = molecular target: T2, Tyrosinase (Agaricus bisporus); experiment: Reversible inhibition of mushroom tyrosinase using L-tyrosine substrate by spectrophotometric analysis
[12] = molecular target: T2, Tyrosinase (Agaricus bisporus); experiment: Potency index, ratio IC50 for ascorbic acid to compound against mushroom tyrosinase assessed as inhibition constant for compound-free enzyme using as L-tyrosine substrate by spectrophotometric analysis
[13] = molecular target: T2, Tyrosinase (Agaricus bisporus); experiment: Potency index, ratio Ki for kojic acid to compound against mushroom tyrosinase assessed as inhibition constant for compound-free enzyme using as L-tyrosine substrate by spectrophotometric analysis
[14] = Metal chelating activity of the compound assessed as formation of copper complex at 84.66 uM after 1 min by UV-vis spectroscopy; assay type: functional
[15] = molecular target: T2, Tyrosinase (Agaricus bisporus); experiment: Potency index, ratio IC50 for hydroquinone to compound against mushroom tyrosinase using as […] substrate after 10 mins by spectrophotometric analysis
Tyrosinase [16] = molecular target: T1, Tyrosinase; experiment: Inhibition of mushroom tyrosinase assessed as inhibition constant for compound-free enzyme using as L-tyrosine substrate by spectrophotometric analysis
[17] = molecular target: T2, Tyrosinase (Agaricus bisporus); experiment: Potency index, ratio IC50 for (Z,Z)-5-trideca-4,7-dienyl)-resorcinol to compound against mushroom tyrosinase assessed as inhibition constant for compound-free enzyme using as L-tyrosine substrate by spectrophotometric analysis
[18] = molecular target: T2, Tyrosinase (Agaricus bisporus); experiment: Potency index, ratio IC50 for kojic acid to compound against mushroom tyrosinase using as L-tyrosine substrate after 10 mins by spectrophotometric analysis
[19] = molecular target: T2, Tyrosinase (Agaricus bisporus); experiment: Potency index, ratio IC50 for hydroquinone to compound against mushroom tyrosinase using as L-tyrosine substrate after 10 mins by spectrophotometric analysis
Tyrosinase [20] = molecular target: T1, Tyrosinase; remark: listed apart in the source
Description: Inhibition of mushroom tyrosinase using as L-tyrosine substrate after 10 mins by spectrophotometric analysis

Tyrosinase [21] = molecular target: T1, Tyrosinase; experiment: Inhibition of mushroom tyrosinase assessed as inhibition constant for compound-enzyme-substrate complex using as […] substrate by spectrophotometric analysis
[22] = molecular target: T2, Tyrosinase (Agaricus bisporus); experiment: Reversible inhibition of mushroom tyrosinase using L-DOPA substrate by spectrophotometric analysis
Tyrosinase [23] = molecular target: T1, Tyrosinase; experiment: Inhibition of mushroom tyrosinase assessed as inhibition constant for compound-enzyme-substrate complex using as L-tyrosine substrate by spectrophotometric analysis

Compound: CCCCC/C=C\C/C=C\CCCc1cc(O)cc(O)c1
- IC50 (Tyrosinase [1]): 51.9 µM
- IC50 (Tyrosinase [2]): 1.7 µM

Compound: CC1(C)C=Cc2c(cc3c(c2O)C(=O)CC(c2ccc(O)cc2O)O3)O1 (centres undefined) [DALENIN]
- inhibition [3]: Active
- inhibition [4]: Active
- inhibition [5]: Active
- TIME [6]: 0.167 h
- IC50 (Tyrosinase [1]): 18.6 µM
- Ratio Ki [7]: 8
- inhibition [8]: Active
- Ki (Tyrosinase [9]): 160 µM
- Ratio IC50 [10]: 285
- inhibition [11]: Active
- Ratio IC50 [12]: 7
- Ratio Ki [13]: 15
- Activity [14]: Active
- Ratio IC50 [15]: 59
- Ki (Tyrosinase [16]): 1.98 µM
- Ratio IC50 [17]: 3
- Ratio IC50 [18]: 495
- Ratio IC50 [19]: 52
- IC50 (Tyrosinase [20]): 0.26 µM
- Ki (Tyrosinase [21]): 160 µM
- inhibition [22]: Active
- Ki (Tyrosinase [23]): 7.6 µM

Compound: Oc1ccc(O)cc1 [HYDROQUINONE]
- IC50 (Tyrosinase [1]): 1090 µM
- IC50 (Tyrosinase [20]): 13.5 µM

Compound: O=S([O-])O.[Na+] [SODIUM BISULFITE]
- IC50 (Tyrosinase [2]): 210 µM

Compound: O=C1CC(c2ccc(O)cc2O)Oc2cc(O)cc(O)c21 (centres undefined) [STEPPOGENIN]
- IC50 (Tyrosinase [1]): 26.5 µM
- IC50 (Tyrosinase [20]): 1.3 µM
